Key:
C57BL/6N mice = test: Evaluation of NIK-333 and ATRA for toxicity in mice (Example 2); format: in vivo, mouse; conditions: oral once per day for 2 weeks, versus soybean oil control
Experimental: 7-Week old C57BL/6N mice (Charles River Japan) were given with MK-333 or ATRA once per day for 2 weeks by forcible continuous oral administration. After completion of the test, S-TG concentrations and testis weights of individual mice were measured. To the control group, soybean oil was administered.

mice = conditions: literature; cited from earlier work
rats = conditions: literature; cited from earlier work
recurrence of hepatoma = conditions: clinical, during the administration; cited from earlier work
[1] = tested on: SD male rats on high fat diet (HFD32); test: Action of NIK-333 for decreasing hepatic lipid amount in high fat diet rats (Example 1); format: in vivo, rat; conditions: oral once a day for 8 weeks, serum
From the text: For the experiment, 6-week old SD male rats (Charles River Japan) were used. HFD32 (Clea Japan) was used for the high fat diet group, and CE-2 (Clea Japan) was used for the normal control group. The feeding was restricted to 25±3 g for both of the groups. Administration of NIK-333 was started at the same time as the start of the loading of the high fat diet, and the drug was given once a day for 8 weeks by forcible continuous oral administration. After completion of the test, each liver was extracted, and triglyceride (H-TG) amount and cholesterol (H-T-chol) amount in the liver were measured. Hematoxylin-eosin (H.E.) and Oil Red O (O.R.) staining samples were prepared from the extracted liver, and histopathological examination was performed. Degree of fatty degeneration of the liver was graded into five categories on the basis of the examination of the H.E. staining sample, and scores were assigned. Further, from the O.R. staining sample, O.R. positive area in the liver sample area was calculated by using an image analyzer. Furthermore, triglyceride (S-TG), total cholesterol (S-T-chol), alanine aminotransferase (S-ALT), and aspartate aminotransferase (S-AST) levels in serum were measured.

Structure (SMILES)	S-TG concentration (FIG. 5) (C57BL/6N mice)	testis weight (FIG. 6) (C57BL/6N mice)	testis weight (mice)	testis weight (rats)	liver function failure or other adverse effects caused by retinoids (recurrence of hepatoma)	lipid concentration in blood (S-TG, S-T-chol; FIG. 3) [1]
CC1=C(/C=C/C(C)=C/C=C/C(C)=C/C(=O)O)C(C)(C)CCC1 [ATRA, all-trans-retinoic acid]	increases the S-TG concentration	markedly decreases testis weight	decreased testis weight	decreased testis weight	–	–
CC(C)=CCC/C(C)=C/CC/C(C)=C/C=C/C(C)=C/C(=O)O [NIK-333, (2E,4E,6E,10E)-3,7,11,15-tetramethyl-2,4,6,10,14-hexadecapentaenoic acid]	does not affect the concentration	does not affect the weight	–	–	not substantially observed	without affecting lipid concentration in blood
